Key:
[1] = tested on: malaria mosquito (Anopheles gambiae); assay: Five-minute exposure bioassay, WHO Adult Mosquito Susceptibility Test Kit, treated filter paper; type: in vivo; settings: for KT 50 / KT 95 / % knock down after 10′ / % knock down after 15′ / % knock down after 20′ / % knock down after 25′ / % knock down after 30′ / % knock down after 45′ / % knock down after 60′ / % mortality 1 d: Table 80, filter paper (mg/m^2); for % mortality 1 d: mortality 24 hours post exposure; for % knock down after 5′: Table 80, technical sample on filter paper (mg/m^2)
Procedure: The bioassays were carried out using the WHO Adult Mosquito Susceptibility Test Kit, (WHO/VBC 81.805, 1981) with plastic cylinders (4.5 cm diameter, 12 cm height). All bioassays were done using preferably female sugar fed Anopheles gambiae mosquitoes. Knock down was recorded after at 5, 10, 15, 20, 25, 30, 45 and 60 minutes, when the mosquitoes were supplied with a 5% sugar water source for 24 hours. Mortality was recorded 24 hours post exposure. Each test consisted of three replicates from which the mean values were calculated. The insecticides (all technical grades) were applied as 2 ml acetone solutions onto filter papers (12 cm×15 cm).

Aedes aegypti mosquito = assay: USDA Petri Dish Method, 3 min exposure to dipped fiberglass window screen; type: in vivo; settings: dipped screen, 3 min exposure
Procedure: MATERIALS AND METHODS: Aqueous solutions of 1% deltamethrin with and without an adjuvant composition, which is sold under the tradename Suspend® SC. […] Pre-cut fiberglass screen (5″×5″, or 161.3 cm^2) were dipped in each treatment solution and excessive solution was allowed to drain completely (see FIG. 23 a). Weight of the solution coated on the screen was then determined. The treated screen was then allowed to air-dry overnight. USDA Petri Dish Method was used as initial screening protocol (see FIG. 23 b). Twenty, 4-6 day old female Aedes aegypti were exposed to treated window screen for 3 minutes and then moved onto a clean untreated white paper index card. Treatments were replicated a minimum of three times. Mosquito knockdown was evaluated at 3 minute intervals for the first 15 minutes and then at 5 minute intervals for the remainder of an hour. A small cotton ball with sucrose solution was added on the screen top of the Petri dish as a drinking source. Mortality was evaluated at 24 hours after exposure.
MATERIALS AND METHODS: Several rates of permethrin without adjuvant were prepared using product sold under the tradename Permanone® 40 to determine an effective rate against Aedes aegypti mosquitoes. After determining an effective rate range, aqueous solutions of permethrin at 1.25, 1.0 and 0.05% AI were prepared with and without adjuvant. […] Pre-cut fiberglass screens (5″×5″ or 161.3 cm^2) were dipped in each treatment solution allowing excessive solution to drain completely. Weight of the solution coated on the screen was then determined. The treated screen was then allowed to air-dry overnight. USDA Petri Dish Method was used as initial screening protocol (see photo, right). Twenty, 4-6 day old female Aedes aegypti were exposed to treated window screen for 3 minutes and then moved to a clean untreated white paper index card. Treatments were replicated a minimum of three times. Mosquito knockdown was evaluated at 3 minute intervals for the first 15 minutes and then at 5 minute intervals for the remainder of an hour. A small cotton ball with sucrose solution was added on the screen top of the petri-dish as a drinking source. Mortality was evaluated at 24 hours after exposure.

[2] = Table 39, permethrin without adjuvant (Permanone 40)
[3] = Table 40, aqueous permethrin/adjuvant

| Compound | Average % Knockdown & Mortality after 3 min (Aedes aegypti mosquito; [2]) | Average % Knockdown & Mortality after 9 min (Aedes aegypti mosquito; [2]) | Average % Knockdown & Mortality after 15 min (Aedes aegypti mosquito; [2]) | Average % Knockdown & Mortality after 30 min (Aedes aegypti mosquito; [2]) | Average % Knockdown & Mortality after 60 min (Aedes aegypti mosquito; [2]) | Average % Knockdown & Mortality after 24 hr (Aedes aegypti mosquito; [2]) | further results |
| --- | --- | --- | --- | --- | --- | --- | --- |
| CC1(C)[C@H](C(=O)O[C@H](C#N)c2cccc(Oc3ccccc3)c2)[C@@H]1C=C(Br)Br [40 mg DTM] | – | – | – | – | – | – | KT 50 [1]: 10 min; KT 95 [1]: 40 min; % knock down after 10′ [1]: 53%; % knock down after 15′ [1]: 66%; % knock down after 20′ [1]: 76%; % knock down after 25′ [1]: 92%; % knock down after 30′ [1]: 97%; % knock down after 45′ [1]: 100%; % knock down after 60′ [1]: 100%; % mortality 1 d [1]: 83%; % knock down after 5′ [1]: 22% |
| CNC(=O)Oc1cccc2c1OC(C)(C)O2 [40 mg bendiocarb] | – | – | – | – | – | – | KT 50 [1]: 12 min; KT 95 [1]: >60 min; % knock down after 10′ [1]: 50%; % knock down after 15′ [1]: 56%; % knock down after 20′ [1]: 68%; % knock down after 25′ [1]: 74%; % knock down after 30′ [1]: 76%; % knock down after 45′ [1]: 81%; % knock down after 60′ [1]: 85%; % mortality 1 d [1]: 94%; % knock down after 5′ [1]: 16% |
| CC1(C)C(C=C(Cl)Cl)C1C(=O)OCc1cccc(Oc2ccccc2)c1 (stereo not shown) [Permethrin (0.1%)] | 0% | 0% | 0% | 0% | 0% | 5% | – |
| CC1(C)C(C=C(Cl)Cl)C1C(=O)OCc1cccc(Oc2ccccc2)c1 (stereo not shown) [Permethrin (1.0%)] | 0% | 2% | 2% | 5% | 18% | 34% | Average % Knockdown & Mortality after 3 min (Aedes aegypti mosquito; [3]): 2%; Average % Knockdown & Mortality after 9 min (Aedes aegypti mosquito; [3]): 2%; Average % Knockdown & Mortality after 15 min (Aedes aegypti mosquito; [3]): 2%; Average % Knockdown & Mortality after 30 min (Aedes aegypti mosquito; [3]): 4%; Average % Knockdown & Mortality after 60 min (Aedes aegypti mosquito; [3]): 13%; Average % Knockdown & Mortality after 24 hr (Aedes aegypti mosquito; [3]): 28% |
| CC1(C)C(C=C(Cl)Cl)C1C(=O)OCc1cccc(Oc2ccccc2)c1 (stereo not shown) [Permethrin (1.5%)] | 0% | 0% | 2% | 2% | 3% | 16% | – |
| CC1(C)C(C=C(Cl)Cl)C1C(=O)OCc1cccc(Oc2ccccc2)c1 (stereo not shown) [Permethrin (1.25%)] | 46% | 71% | 71% | 72% | 79% | 82% | Average % Knockdown & Mortality after 3 min (Aedes aegypti mosquito; [3]): 0%; Average % Knockdown & Mortality after 9 min (Aedes aegypti mosquito; [3]): 0%; Average % Knockdown & Mortality after 15 min (Aedes aegypti mosquito; [3]): 2%; Average % Knockdown & Mortality after 30 min (Aedes aegypti mosquito; [3]): 2%; Average % Knockdown & Mortality after 60 min (Aedes aegypti mosquito; [3]): 3%; Average % Knockdown & Mortality after 24 hr (Aedes aegypti mosquito; [3]): 7% |
| CC1(C)C(C=C(Cl)Cl)C1C(=O)OCc1cccc(Oc2ccccc2)c1 (stereo not shown) [Permethrin (1.75%)] | 40% | 95% | 100% | 100% | 100% | 100% | – |
| CC1(C)C(C=C(Cl)Cl)C1C(=O)OCc1cccc(Oc2ccccc2)c1 (stereo not shown) [Permethrin (2.5%)] | 56% | 100% | 100% | 100% | 100% | 100% | – |
| CC1(C)C(C=C(Cl)Cl)C1C(=O)OCc1cccc(Oc2ccccc2)c1 (stereo not shown) [Permethrin (5%)] | 75% | 100% | 100% | 100% | 100% | 100% | – |

Reference: patent publication US9028856B2, “Synergistic pesticide compositions” (priority 2008, dated 2015)
